Where no end group is shown, it is not given here. [ ]: non-standard residue; d: D form. pT = C[C@@H](OP(=O)(O)O)[C@H](N)C(=O)O; pS = N[C@@H](COP(=O)(O)O)C(=O)O
Tested on: PBMC
Assay: IFNg/IL-5 dual ELISPOT after 14 day in vitro stimulation of PBMC with Tau peptides
Assay type: cell-based, human
Details: for PD % of Total Responders / PD Total SFC / PD Total Responders: PD donors; for % of total response / Average SFC per responder / Frequency of response / Total SFC per epitope: across all cohorts; for Total Responders / Total SFC: all three cohorts (PD, HC > 50, HC < 35); for HC < 35 Total Responders / HC < 35 Total SFC: healthy controls < 35 years old
Text: It was investigated whether T cell responses against Tau were detectable in the PD and healthy control (HC) donors. To this end, a panel of overlapping peptides spanning through the entire sequence of the Tau protein was synthesized. Since it is known that the Tau protein is post-translationally modified (mainly by phosphorylation), in several instances phosphorylated peptides were also synthesized. In all, 55 non-modified 16-mers overlapping by 8 and 14 modified 16-mers were synthesized.
PD: n=16, peptides tested 14-16 times; HC above 50 years old denominated as age-matched: n=11 (9-11 times) and HC below 35 years old (HC Young): n=13 (10-13 times).
These peptides were tested utilizing the following assay strategy. Briefly, PBMC from each donor were stimulated in vitro for 14 days as described (Hinz, D., 2015) with pools of 10 to 16 peptides each. After 14 days, the T cell cultures were assayed with IFNg/IL-5 dual ELISPOT assays […]. Positive pools were deconvoluted at day 17 to identify the specific individual epitopes recognized.

[1] = healthy controls > 50 years old

Sequence | PD/HC > 50 Ratio of % Responders | PD/HC > 50 Ratio of Response | HC > 50 % of Total Responders [%] | HC > 50 Total SFC (HC > 50, dominant epitopes) [SFC] | PD % of Total Responders [%] | PD Total SFC (dominant epitopes) [SFC] | % of total response [%] | Average SFC per responder [SFC] | Frequency of response | Total SFC per epitope [SFC] | PD Total Responders | PD Total SFC [SFC] | Total Responders | Total SFC [SFC] | HC < 35 Total Responders | HC < 35 Total SFC [SFC] | HC > 50 Total Responders [1] | HC > 50 Total SFC [1] [SFC]
ADGKTKIATPRGAAPP (listed as Homo sapiens) [Tau 16-mer, start 145] | 1.0 | 0.5 | 50.0 | 3577 | 50.0 | 1633 | 1.5 | 868 | 11.3 | 5210 | – | – | – | – | – | – | – | –
ATLADEVSASLAKQGL (listed as Homo sapiens) [Tau 16-mer, start 426] | 1.5 | 0.8 | 40.0 | 2803 | 60.0 | 2193 | 1.4 | 999 | 9.4 | 4997 | – | – | – | – | – | – | – | –
DFKDRVQSKIGSLDNI (DFKDRVQSKIG[pS]LDNI; listed as Homo sapiens) [Tau 16-mer, start 345] | 0.7 | 0.6 | 60.0 | 4330 | 40.0 | 2397 | 1.9 | 1345 | 9.4 | 6727 | 2 | 2397 | 5 | 6727 | 0 | 0 | 3 | 4330
DFKDRVQSKIGZLDNI | 2.0 | 3.7 | 28.6 | 1220 | 57.1 | 4490 | 1.9 | 972 | 13.2 | 6807 | 4 | 4490 | 7 | 6807 | 1 | 1097 | 2 | 1220
DRSGYSSPGSPGTPGS (DRSGYSSPG[pS]PG[pT]PGS; listed as Homo sapiens) [Tau 16-mer, start 193] | – | – | – | – | – | – | – | – | – | – | 1 | 1175 | 2 | 1332 | 0 | 0 | 1 | 157
DRSGYSSPGZPGXPGS | 5.0 | 7.3 | 11.1 | 187 | 55.6 | 1360 | 1.6 | 611 | 17.0 | 5499 | 5 | 1360 | 9 | 5499 | 3 | 3952 | 1 | 187
GDTSPRHLSNVSSTGS (listed as Homo sapiens) [Tau 16-mer, start 401] | 0.3 | 0.6 | 50.0 | 1657 | 16.7 | 997 | 1.1 | 633 | 11.3 | 3798 | – | – | – | – | – | – | – | –
GKVQIINKKLDLSNVQ (listed as Homo sapiens) [Tau 16-mer, start 273] | 2.5 | 3.3 | 20.0 | 5560 | 50.0 | 18290 | 8.6 | 1511 | 37.7 | 30211 | – | – | – | – | – | – | – | –
GQKGQANATRIPAKTP (listed as Homo sapiens) [Tau 16-mer, start 161] | 4.0 | 3.5 | 16.7 | 1770 | 66.7 | 6247 | 2.3 | 1361 | 11.3 | 8164 | – | – | – | – | – | – | – | –
HVTQARMVSKSKDGTG (listed as Homo sapiens) | 5.0 | 66.9 | 10.0 | 133 | 50.0 | 8916 | 4.2 | 1468 | 18.9 | 14677 | – | – | – | – | – | – | – | –
IDMVDSPQLATLADEV (listed as Homo sapiens) [Tau 16-mer, start 417] | – | – | – | – | – | – | – | – | – | – | 1 | 173 | 1 | 173 | 0 | 0 | 0 | 0
IDMVDZPQLATLADEV | – | – | – | – | – | – | – | – | – | – | 1 | 197 | 5 | 1703 | 2 | 563 | 2 | 943
IKHVPGGGSVQIVYKP (listed as Homo sapiens) [Tau 16-mer, start 297] | 1.3 | 11.6 | 33.3 | 737 | 44.4 | 8565 | 3.4 | 1319 | 17.0 | 11875 | – | – | – | – | – | – | – | –
KIGSLDNITHVPGGGN (listed as Homo sapiens) [Tau 16-mer, start 353] | inf | inf | 0.0 | 0 | 100.0 | 4070 | 1.2 | 4070 | 1.9 | 4070 | – | – | – | – | – | – | – | –
KKIETHKLTFRENAKA (listed as Homo sapiens) [Tau 16-mer, start 369] | 1.4 | 1.4 | 31.3 | 5898 | 43.8 | 8190 | 5.4 | 1174 | 30.2 | 18790 | – | – | – | – | – | – | – | –
KTDHGAEIVYKSPVVS (listed as Homo sapiens) [Tau 16-mer, start 385] | 7.0 | 5.5 | 8.3 | 2437 | 58.3 | 13336 | 5.7 | 1679 | 22.6 | 20142 | – | – | – | – | – | – | – | –
KVAVVRTPPKSPSSAK (KVAVVR[pT]PPKSPSSAK; listed as Homo sapiens) | inf | inf | 0.0 | 0 | 100.0 | 4556 | 1.3 | 911 | 9.4 | 4556 | 5 | 4556 | 5 | 4556 | 0 | 0 | 0 | 0
KVAVVRXPPKSPSSAK | 4.0 | 3.2 | 13.0 | 6987 | 52.2 | 22410 | 13.2 | 12014 | 43.4 | 46324 | 12 | 22410 | 23 | 46324 | 8 | 16927 | 3 | 6987

Source: patent US20200095296A1, “USE OF PEPTIDES AS BIOMARKERS IN THE DIAGNOSIS, CONFIRMATION AND TREATMENT OF A NEUROLOGICAL DISORDER AND TCR AND/OR HLA IMMUNOPROFILING IN NEURODEGENERATIVE DISEASE” (THE TRUSTEES OF COLUMBIA UNIVERSITY IN THE CITY OF NEW YORK, priority 2017, published 2020)
